Laboratory results taken from patent publication US20260199368A1, “[…] SYSTEM CONTAINING REMIMAZOLAM” (LTS LOHMANN THERAPIE-SYSTEME AG, priority 2022, published 2026).

Columns and labels:
[1] = Mucosa permeation study (in vitro permeation test); format: in vitro ADME, pig
Protocol: Where not otherwise indicated, the in vitro permeation test is performed with dermatomed split-thickness pig mucosa (mucosa oesophagus) with a thickness of 400 μm and an intact barrier function, and with phosphate buffer pH 7.4 as receptor medium (37° C.). The amount of active permeated into the receptor medium is determined in regular intervals using an HPLC method with a UV photometric detector by taking a sample volume. The measured amount of active permeated relates to the amount permeated between the two last sampling points and not the total amount permeated so far. Within the meaning of this invention, artificial saliva refers to an aqueous solution of 0.520 g/L potassium thiocyanate, 1.470 g/L potassium chloride, 0.190 g/L sodium dihydrogenphosphate monohydrate and 2.650 g/L sodium hydrogenphosphate dihydrate, adjusted to a pH of 7.0+/−0.05 using 1 N NaOH.
For the investigation of the potential impact of pH on the permeation, a permeation study was performed to assess the permeation of remimazolam besylate (RMZ besylate) through the mucosa in dependence of pH value. In a second run, also the performance of remimazolam lyophilizate product (RMZ besylate) vs. oromucosal delivery system was assessed.
The samples used for permeation run 1 are defined in Table 19.
(§1) The permeated amount and the corresponding mucosa permeation rates of the oromucosal delivery system prepared according to Examples 2a were determined by in vitro experiments in accordance with the OECD Guideline (adopted Apr. 13, 2004) using pig mucosa with a thickness of 400 μm (mucosa oesophagus). The donor solutions were prepared by dissolving a sample film of Example 2a with a size of 5.75 cm^2 either in 5 ml artificial saliva or in 5 ml 0.9% NaCl. The remimazolam besylate was dissolved in artificial saliva so that the applied dose of RMZ was equivalent to an oromucosal delivery system containing 50 mg remimazolam in 500 μL medium, and the pH of the mixture was adjusted as indicated in Table 19. The pH was measured using a pH electrode. The permeation donor solutions were directly applied to the mucosa (diffusion area of 4.524 cm^2). The remimazolam permeated amount in the receptor medium (phosphate buffer solution pH 7.4) at a temperature of 37±1° C. was measured and the corresponding mucosa permeation rate calculated.
(§2) Due to the high variability in permeation run 1 (n=3), a second permeation experiment was performed with more replicates (n=6) to enlarge the data basis. The samples used are defined in table 15. Example 2a and Lyophilizate were dissolved in artificial saliva and 0.9% NaCl, respectively. Due to a pH adjustment in the lyophilizate/drug product, the resulting pH was slightly lower (pH 3.14 and pH 3.09) than with the Example 2a without pH adjustment (pH 3.67 and pH 3.50). A RMZ sample set to pH 3 served as a control.
The permeated amount and the corresponding mucosa permeation rates of the oromucosal delivery system prepared according to Examples 2a were determined as outlined above. The remimazolam permeated amount in the receptor medium (phosphate buffer solution pH 7.4) at a temperature of 37±1° C. was measured and the corresponding mucosa permeation rate calculated.

[2] = pH and appearance of permeation donor solutions; format: physicochemical; conditions: Artificial Saliva
Protocol: as §1, §2

## COC(=O)CC[C@@H]1N=C(c2ccccn2)c2cc(Br)ccc2-n2c(C)cnc21.O=S(=O)(O)c1ccccc1 [RMZ, remimazolam besylate]
[1]; artificial saliva, pH 4.5 and pH 6
  permeation rate (assessment): poor
[1]; n = 3, in artificial saliva (pH 2), 2.5 min
  mucosa permeation rate: 1.98 μg/cm^2 min
[1]; n = 3, in artificial saliva (pH 2), 7.5 min
  mucosa permeation rate: 2.09 μg/cm^2 min
[1]; n = 3, in artificial saliva (pH 2), 12.5 min
  mucosa permeation rate: 1.83 μg/cm^2 min
[1]; n = 3, in artificial saliva (pH 2), 17.5 min
  mucosa permeation rate: 1.95 μg/cm^2 min
[1]; n = 3, in artificial saliva (pH 2), 22.5 min
  mucosa permeation rate: 1.92 μg/cm^2 min
[1]; n = 3, in artificial saliva (pH 2), 27.5 min
  mucosa permeation rate: 2.04 μg/cm^2 min
[1]; n = 3, in artificial saliva (pH 2), 45 min
  mucosa permeation rate: 1.36 μg/cm^2 min
[1]; n = 3, in artificial saliva (pH 3), 2.5 min
  mucosa permeation rate: 0.19 μg/cm^2 min
[1]; n = 3, in artificial saliva (pH 3), 7.5 min
  mucosa permeation rate: 0.75 μg/cm^2 min
[1]; n = 3, in artificial saliva (pH 3), 12.5 min
  mucosa permeation rate: 1.18 μg/cm^2 min
[1]; n = 3, in artificial saliva (pH 3), 17.5 min
  mucosa permeation rate: 1.43 μg/cm^2 min
[1]; n = 3, in artificial saliva (pH 3), 22.5 min
  mucosa permeation rate: 1.62 μg/cm^2 min
[1]; n = 3, in artificial saliva (pH 3), 27.5 min
  mucosa permeation rate: 1.80 μg/cm^2 min
[1]; n = 3, in artificial saliva (pH 3), 45 min
  mucosa permeation rate: 1.60 μg/cm^2 min
[1]; n = 3, in artificial saliva (pH 4.5), 2.5 min
  mucosa permeation rate: 0.09 μg/cm^2 min
[1]; n = 3, in artificial saliva (pH 4.5), 7.5 min
  mucosa permeation rate: 0.37 μg/cm^2 min
[1]; n = 3, in artificial saliva (pH 4.5), 12.5 min
  mucosa permeation rate: 0.22 μg/cm^2 min
[1]; n = 3, in artificial saliva (pH 4.5), 17.5 min
  mucosa permeation rate: 0.26 μg/cm^2 min
[1]; n = 3, in artificial saliva (pH 4.5), 22.5 min
  mucosa permeation rate: 0.34 μg/cm^2 min
[1]; n = 3, in artificial saliva (pH 4.5), 27.5 min
  mucosa permeation rate: 0.58 μg/cm^2 min
[1]; n = 3, in artificial saliva (pH 4.5), 45 min
  mucosa permeation rate: 0.26 μg/cm^2 min
[1]; n = 3, in artificial saliva (pH 6), 2.5 min
  mucosa permeation rate: 0.11 μg/cm^2 min
[1]; n = 3, in artificial saliva (pH 6), 7.5 min
  mucosa permeation rate: 0.18 μg/cm^2 min
[1]; n = 3, in artificial saliva (pH 6), 12.5 min
  mucosa permeation rate: 0.18 μg/cm^2 min
[1]; n = 3, in artificial saliva (pH 6), 17.5 min
  mucosa permeation rate: 0.31 μg/cm^2 min
[1]; n = 3, in artificial saliva (pH 6), 22.5 min
  mucosa permeation rate: 0.37 μg/cm^2 min
[1]; n = 3, in artificial saliva (pH 6), 27.5 min
  mucosa permeation rate: 0.58 μg/cm^2 min
[1]; n = 3, in artificial saliva (pH 6), 45 min
  mucosa permeation rate: 0.47 μg/cm^2 min
[1]; n = 6, in artificial saliva (pH 3), 2.5 min
  mucosa permeation rate: 0.01 μg/cm^2 min
[1]; n = 6, in artificial saliva (pH 3), 7.5 min
  mucosa permeation rate: 0.21 μg/cm^2 min
[1]; n = 6, in artificial saliva (pH 3), 12.5 min
  mucosa permeation rate: 0.65 μg/cm^2 min
[1]; n = 6, in artificial saliva (pH 3), 17.5 min
  mucosa permeation rate: 1.08 μg/cm^2 min
[1]; n = 6, in artificial saliva (pH 3), 22.5 min
  mucosa permeation rate: 1.38 μg/cm^2 min
[1]; n = 6, in artificial saliva (pH 3), 27.5 min
  mucosa permeation rate: 1.56 μg/cm^2 min
[1]; n = 6, in artificial saliva (pH 3), 45 min
  mucosa permeation rate: 1.23 μg/cm^2 min
[1]; run 2, n = 6, 0.9% NaCl and artificial saliva
  mucosa permeation, comparison between samples: no significant difference
[2]; run 1, set pH 2
  Appearance of Donor Solution: Clear solution
[2]; run 1, set pH 3
  Appearance of Donor Solution: Little RMZ solid
[2]; run 1, set pH 4.5
  Appearance of Donor Solution: Much RMZ solid
[2]; run 1, set pH 6
  Appearance of Donor Solution: Very much RMZ solid
[2]; run 2, set pH 3
  Appearance of Donor Solution: Little RMZ solid
